Assay results taken from patent US20160108039A1, “TRIAZOLOPYRIDINES AS THROMBIN INHIBITORS FOR THE TREATMENT OF THROMBOEMBOLIC DISEASES” (BAYER PHARMA AKTIENGESELLSCHAFT, priority 2013, published 2016).

Assays:
thrombin [1] = molecular target: T1, thrombin (Homo sapiens, UniProt P00734); test: Measurement of the thrombin inhibition in buffer; assay type: biochemical; details: human thrombin 0.06 nmol/l in Tris buffer pH 7.4, 22° C., substrate Boc-Asp(OBzl)-Pro-Arg-AMC; in some cases means of individual determinations
Procedure: To determine the thrombin inhibition of the substances listed above, a biochemical test system is constructed in which the conversion of a thrombin substrate is used for determining the enzymatic activity of human thrombin. Here, thrombin cleaves aminomethylcoumarin, which is measured fluorescently, from the peptic substrate. The determinations are carried out in microtitre plates.
Substances to be tested are dissolved in various concentrations in dimethyl sulphoxide and incubated for 15 min with human thrombin (0.06 nmol/l dissolved in 50 mmol/l of Tris buffer [C,C,C-tris(hydroxymethyl)aminomethane], 100 mmol/l of sodium chloride, 0.1% BSA [bovine serum albumin], pH 7.4) at 22° C. The substrate (5 μmol/l Boc-Asp(OBzl)-Pro-Arg-AMC from Bachem) is then added. After 30 min of incubation, the sample is excited at a wavelength of 360 nm and the emission is measured at 460 nm. The measured emissions of the test mixtures with test substance are compared to the control mixtures without test substance (only dimethyl sulphoxide instead of test substance in dimethyl sulphoxide) and IC50 values are calculated from the concentration/activity relationships. Representative activity data from this test are given in Table 1 below (in some cases as means of individual determinations): […]

thrombin [2] = molecular target: T1, thrombin; test: Thrombin-inhibitory activity in plasma samples (ecarin-activated); assay type: biochemical; details: citrate plasma, ecarin activation, fluorogenic thrombin substrate; read at about 70% of maximum signal (about 12 min); in some cases means
Procedure: To determine the inhibition of thrombin in plasma samples, plasma prothrombinase is activated by ecarin. Thrombin activity and/or its inhibition by potential inhibitors is/are then measured fluorescently by addition of a substrate.
The substances to be tested are dissolved in various concentrations in dimethyl sulphoxide and diluted with water. In white 96-well flat-bottomed plates, 20 μl of substance dilution are mixed with 20 μl of ecarin solution (ecarin reagent, from Sigma E-0504, final concentration 20 mU per reaction) in Ca buffer (200 mM Hepes+560 mM sodium chloride+10 mM calcium chloride+0.4% PEG) or with 20 μl of Ca buffer (as unstimulated control). Furthermore, 20 μl of fluorogenic thrombin substrate (from Bachem 1-1120, final concentration 50 μmol/l) and 20 μl of citrate plasma (from Octapharma) are added, and the mixture is homogenized well. The plate is measured in a SpectraFluorplus Reader using a 360 nm excitation filter and a 465 nm emission filter every minute over 20 minutes. […] Representative activity data from this test are given in Table 2 below (in some cases as means of individual determinations): […]

Row | IC50 (thrombin [1]) | IC50 (thrombin [2]) | Compound
1 | 30 nM | 34 nM | COc1cc(C(=O)N2CC(C)(CC(C)O)OCC2(C)C)cn2nc(NCc3cccc(Cl)c3)nc12 (single isomer, unassigned) [Example 39, {2-[(3-Chlorobenzyl)amino]-8-methoxy[1,2,4]triazolo[1,5-a]pyridin-6-yl}[2-(2-hydroxypropyl)-2,5,5-trimethylmorpholin-4-yl]methanone]
2 | 31 nM | 75 nM | COc1cc(C(=O)N2CC(C)OCC2C(C)(C)O)cn2nc(NCc3cccc(Cl)c3)nc12 (single isomer, unassigned) [Example 40, {2-[(3-Chlorobenzyl)amino]-8-methoxy[1,2,4]triazolo[1,5-a]pyridin-6-yl}[5-(2-hydroxypropan-2-yl)-2-methylmorpholin-4-yl]methanone]
3 | 1.3 nM | 4.1 nM | COc1cc(C(=O)N2CC(C)(CC(C)O)OC[C@H]2C)cn2nc(NCc3cccc(Cl)c3)nc12 (single isomer, unassigned) [Example 41]
4 | 19 nM | 24 nM | COc1cc(C(=O)N2CC(C)(C)OCC2CC(C)O)cn2nc(NCc3cccc(Cl)c3)nc12 (single isomer, unassigned) [Example 49, {2-[(3-Chlorobenzyl)amino]-8-methoxy[1,2,4]triazolo[1,5-a]pyridin-6-yl}[5-(2-hydroxypropyl)-2,2-dimethylmorpholin-4-yl]methanone]
5 | 6.9 nM | 24 nM | COc1cc(C(=O)N2CC(C)(CCO)OCC2CF)cn2nc(NCc3cccc(Cl)c3)nc12 (single isomer, unassigned) [Example 53, {2-[(3-Chlorobenzyl)amino]-8-methoxy[1,2,4]triazolo[1,5-a]pyridin-6-yl}[5-(fluoromethyl)-2-(2-hydroxyethyl)-2-methylmorpholin-4-yl]methanone]
6 | 100 nM | 611 nM | COc1cc(C(=O)N2CC(C)(CCO)OCC2CF)cn2nc(NCc3cccc(Cl)c3)nc12 (single isomer, unassigned) [Example 54, {2-[(3-Chlorobenzyl)amino]-8-methoxy[1,2,4]triazolo[1,5-a]pyridin-6-yl}[5-(fluoromethyl)-2-(2-hydroxyethyl)-2-methylmorpholin-4-yl]methanone]
7 | 9.6 nM | 65 nM | COc1cc(C(=O)N2CC(C)(CCO)OCC2C(F)F)cn2nc(NCc3cccc(Cl)c3)nc12 (single isomer, unassigned) [Example 55, {[(3-Chlorobenzyl)amino]-8-methoxy[1,2,4]triazolo[1,5-a]pyridin-6-yl}[5-(difluoromethyl)-2-(2-hydroxyethyl)-2-methylmorpholin-4-yl]methanone]
8 | 1.3 nM | 5.9 nM | COc1cc(C(=O)N2CC(C)(CC(C)O)OCC2CF)cn2nc(NCc3cccc(Cl)c3)nc12 (single isomer, unassigned) [Example 56, {[(3-Chlorobenzyl)amino]-8-methoxy[1,2,4]triazolo[1,5-a]pyridin-6-yl}[5-(fluoromethyl)-2-(2-hydroxypropyl)-2-methylmorpholin-4-yl]methanone]
9 | 8.3 nM | 11 nM | CCC1C(=O)N2CCC2CN1C(=O)c1cc(OC)c2nc(NCc3cccc(Cl)c3)nn2c1 (single isomer, unassigned) [Example 59, 4-({2-[(3-Chlorobenzyl)amino]-8-methoxy[1,2,4]triazolo[1,5-a]pyridin-6-yl}carbonyl)-3-ethyl-1,4-diazabicyclo[4.2.0]octan-2-one]
10 | 26 nM | 23 nM | COCC1C(=O)N2CCC2CN1C(=O)c1cc(OC)c2nc(NCc3cccc(Cl)c3)nn2c1 (single isomer, unassigned) [Example 60, 4-({2-[(3-Chlorobenzyl)amino]-8-methoxy[1,2,4]triazolo[1,5-a]pyridin-6-yl}carbonyl)-3-(methoxymethyl)-1,4-diazabicyclo[4.2.0]octan-2-one]
11 | 23 nM | 17 nM | COc1cc(C(=O)N2CC3CCN3C(=O)C2C)cn2nc(NCc3cccc(Cl)c3)nc12 (single isomer, unassigned) [Example 61, 4-({2-[(3-Chlorobenzyl)amino]-8-methoxy[1,2,4]triazolo[1,5-a]pyridin-6-yl}carbonyl)-3-methyl-1,4-diazabicyclo[4.2.0]octan-2-one]
12 | 17 nM | 39 nM | COc1cc(C(=O)N2CC3(CC3)NC(=O)C2C)cn2nc(NCc3cccc(Cl)c3)nc12 (single isomer, unassigned) [Example 62, 7-({2-[(3-Chlorobenzyl)amino]-8-methoxy[1,2,4]triazolo[1,5-a]pyridin-6-yl}carbonyl)-6-methyl-4,7-diazaspiro[2.5]octan-5-one]
13 | 9.8 nM | 24 nM | CCC1C(=O)NC(C)CN1C(=O)c1cc(OC)c2nc(NCc3cccc(Cl)c3)nn2c1 (single isomer, unassigned) [Example 63, 4-({2-[(3-Chlorobenzyl)amino]-8-methoxy[1,2,4]triazolo[1,5-a]pyridin-6-yl}carbonyl)-3-ethyl-6-methylpiperazin-2-one]
14 | 25 nM | 24 nM | COc1cc(C(=O)N2CC(C)(C)OCC2C(C)(C)O)cn2nc(NCc3cccc(Cl)c3)nc12 (single isomer, unassigned) [Example 66, {2-[(3-Chlorobenzyl)amino]-8-methoxy[1,2,4]triazolo[1,5-a]pyridin-6-yl}[5-(2-hydroxypropan-2-yl)-2,2-dimethylmorpholin-4-yl]methanone]
15 | 48 nM | 90 nM | COc1cc(C(=O)N2CC(C)(C)OCC2C2(O)CC2)cn2nc(NCc3cccc(Cl)c3)nc12 (single isomer, unassigned) [Example 67, {2-[(3-Chlorobenzyl)amino]-8-methoxy[1,2,4]triazolo[1,5-a]pyridin-6-yl}[5-(1-hydroxycyclopropyl)-2,2-dimethylmorpholin-4-yl]methanone]
16 | 49 nM | 106 nM | COc1cc(C(=O)N2CC(C)(C)OCC2C(C)O)cn2nc(NCc3cccc(Cl)c3)nc12 (single isomer, unassigned) [Example 68, {2-[(3-Chlorobenzyl)amino]-8-methoxy[1,2,4]triazolo[1,5-a]pyridin-6-yl}[5-(1-hydroxyethyl)-2,2-dimethylmorpholin-4-yl]methanone]
17 | 6.1 nM | 35 nM | CC[C@@H]1COC(C)(CCO)CN1C(=O)c1cc(OC)c2nc(NCc3cccc(Cl)c3)nn2c1 (single isomer, unassigned) [Example 70]
18 | 13 nM | 34 nM | COCC1COC(C)(CCO)CN1C(=O)c1cc(OC)c2nc(NCc3cccc(Cl)c3)nn2c1 (single isomer, unassigned) [Example 72, {2-[(3-Chlorobenzyl)amino]-8-methoxy[1,2,4]triazolo[1,5-a]pyridin-6-yl}[2-(2-hydroxyethyl)-5-(methoxymethyl)-2-methylmorpholin-4-yl]methanone]
19 | 19 nM | 19 nM | [2H]C([2H])(C)O[C@@H]1CC(CO)N(C(=O)c2cc(OC)c3nc(NCc4cccc(Cl)c4)nn3c2)C1 (single isomer, unassigned) [Example 74]
20 | 23 nM | 74 nM | COc1cc(C(=O)N2C[C@H](OCC(F)F)CC2CO)cn2nc(NCc3cccc(Cl)c3)nc12 (single isomer, unassigned) [Example 75]
21 | 6.4 nM | 5.9 nM | COc1cc(C(=O)N2CC3CCN3C(=O)C2C)cn2nc(NC(CF)c3cccc(Cl)c3)nc12 (single isomer, unassigned) [Example 77, 4-[(2-{[1-(3-Chlorophenyl)-2-fluoroethyl]amino}-8-methoxy[1,2,4]triazolo[1,5-a]pyridin-6-yl)carbonyl]-3-methyl-1,4-diazabicyclo[4.2.0]octan-2-one]
22 | 19 nM | 20 nM | COc1cc(C(=O)N2CC(C)OCC2C2CC(O)C2)cn2nc(NCc3cccc(Cl)c3)nc12 (stereo not shown) [Example 2, {2-[(3-Chlorobenzyl)amino]-8-methoxy[1,2,4]triazolo[1,5-a]pyridin-6-yl}[5-(3-hydroxycyclobutyl)-2-methylmorpholin-4-yl]methanone]
23 | 20 nM | 24 nM | COc1cc(C(=O)N2CC(C)(C)OC[C@H]2CCO)cn2nc(NCc3cccc(Cl)c3)nc12 [Example 7, {2-[(3-Chlorobenzyl)amino]-8-methoxy[1,2,4]triazolo[1,5-a]pyridin-6-yl}[(5R)-5-(2-hydroxyethyl)-2,2-dimethylmorpholin-4-yl]methanone]
